Data taken from the supplement of paper PMC11451515.

Test system: NOMO1
Assay: cell viability relative to DMSO control; higher = less cytotoxic
Conditions: 48 h
Summary of the method: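 In 1536-well plates, 5 μl of leukemia cells were seeded per well: 500 cells/well for NOMO1 or SEM and 1000 cells/well for P12-Ichikawa. Each line had first been adapted for at least four passages in each medium. Library compounds in DMSO were pin-dosed at 11 threefold concentrations between 47 μM and 0.79 nM, and CellTiter-Glo One luminescence was read after 48 h at 37°C. Viability is a per-plate percentage relative to DMSO wells, with cell-free wells as background.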

[1] = HPLM + 10% dialyzed FBS, 0.000781 µM
[2] = HPLM + 10% dialyzed FBS, 0.00234 µM
[3] = HPLM + 10% dialyzed FBS, 0.00702 µM
[4] = HPLM + 10% dialyzed FBS, 0.0211 µM
[5] = HPLM + 10% dialyzed FBS, 0.0632 µM
[6] = HPLM + 10% dialyzed FBS, 0.19 µM
[7] = HPLM + 10% dialyzed FBS, 0.569 µM
[8] = HPLM + 10% dialyzed FBS, 1.71 µM
[9] = HPLM + 10% dialyzed FBS, 5.12 µM
[10] = HPLM + 10% dialyzed FBS, 15.4 µM
[11] = HPLM + 10% dialyzed FBS, 46.1 µM
[12] = RPMI 5 mM glucose + 10% FBS, 0.000781 µM
[13] = RPMI 5 mM glucose + 10% FBS, 0.00234 µM
[14] = RPMI 5 mM glucose + 10% FBS, 0.00702 µM
[15] = RPMI 5 mM glucose + 10% FBS, 0.0211 µM
[16] = RPMI 5 mM glucose + 10% FBS, 0.0632 µM
[17] = RPMI 5 mM glucose + 10% FBS, 0.19 µM
[18] = RPMI 5 mM glucose + 10% FBS, 0.569 µM
[19] = RPMI 5 mM glucose + 10% FBS, 1.71 µM
[20] = RPMI 5 mM glucose + 10% FBS, 5.12 µM
[21] = RPMI 5 mM glucose + 10% FBS, 15.4 µM
[22] = RPMI 5 mM glucose + 10% FBS, 46.1 µM
[23] = RPMI 5 mM glucose + 10% dialyzed FBS, 0.000781 µM
[24] = RPMI 5 mM glucose + 10% dialyzed FBS, 0.00234 µM
[25] = RPMI 5 mM glucose + 10% dialyzed FBS, 0.00702 µM
[26] = RPMI 5 mM glucose + 10% dialyzed FBS, 0.0211 µM
[27] = RPMI 5 mM glucose + 10% dialyzed FBS, 0.0632 µM
[28] = RPMI 5 mM glucose + 10% dialyzed FBS, 0.19 µM
[29] = RPMI 5 mM glucose + 10% dialyzed FBS, 0.569 µM
[30] = RPMI 5 mM glucose + 10% dialyzed FBS, 1.71 µM
[31] = RPMI 5 mM glucose + 10% dialyzed FBS, 5.12 µM
[32] = RPMI 5 mM glucose + 10% dialyzed FBS, 15.4 µM
[33] = RPMI 5 mM glucose + 10% dialyzed FBS, 46.1 µM

SMILES: CCC1=C2CN3C(=O)\C4=C(/C=C3/C2=NC5=CC=C(O)C=C15)[C@@](O)(CC)C(=O)OC4
- cell viability [1]: 102%
- cell viability [2]: 96%
- cell viability [3]: 97.8%
- cell viability [4]: 60.5%
- cell viability [5]: 27.1%
- cell viability [6]: 25.9%
- cell viability [7]: 28.2%
- cell viability [8]: 23.4%
- cell viability [9]: 22.8%
- cell viability [10]: 24.8%
- cell viability [11]: 27%
- cell viability [12]: 93%
- cell viability [13]: 95.5%
- cell viability [14]: 92.5%
- cell viability [15]: 91.8%
- cell viability [16]: 18%
- cell viability [17]: 16.6%
- cell viability [18]: 20.7%
- cell viability [19]: 17.4%
- cell viability [20]: 19.6%
- cell viability [21]: 16.6%
- cell viability [22]: 16.1%
- cell viability [23]: 104%
- cell viability [24]: 90.1%
- cell viability [25]: 91.8%
- cell viability [26]: 69.8%
- cell viability [27]: 23.6%
- cell viability [28]: 22.5%
- cell viability [29]: 26.6%
- cell viability [30]: 21%
- cell viability [31]: 22.7%
- cell viability [32]: 22.2%
- cell viability [33]: 21.2%

SMILES: CON(C)C(=O)N1\N=C(/S[C@]1(CCCN)C2=CC=CC=C2)C3=CC(=CC=C3F)F
- cell viability [1]: 65%
- cell viability [2]: 41.6%
- cell viability [3]: 39.2%
- cell viability [4]: 46.7%
- cell viability [5]: 46.2%
- cell viability [6]: 40.4%
- cell viability [7]: 30.8%
- cell viability [8]: 37.2%
- cell viability [9]: 32.1%
- cell viability [10]: 24.7%
- cell viability [11]: 24.1%
- cell viability [12]: 55.1%
- cell viability [13]: 22.8%
- cell viability [14]: 26.3%
- cell viability [15]: 27.1%
- cell viability [16]: 21.7%
- cell viability [17]: 20%
- cell viability [18]: 23.4%
- cell viability [19]: 22.8%
- cell viability [20]: 20.6%
- cell viability [21]: 15.6%
- cell viability [22]: 15.7%
- cell viability [23]: 96%
- cell viability [24]: 30.7%
- cell viability [25]: 36.8%
- cell viability [26]: 35%
- cell viability [27]: 32.2%
- cell viability [28]: 31.2%
- cell viability [29]: 27.9%
- cell viability [30]: 32.6%
- cell viability [31]: 28.5%
- cell viability [32]: 22.6%
- cell viability [33]: 22.5%

SMILES: O=C1N\N=C(\C[C@@H]2CCN(C2)C(=O)C3CC3)N1C4=CC=C(C=C4)C5=CC=C6OC=CC6=C5
- cell viability [1]: 99.4%
- cell viability [2]: 89%
- cell viability [3]: 90.1%
- cell viability [4]: 94.5%
- cell viability [5]: 94.7%
- cell viability [6]: 99%
- cell viability [7]: 92%
- cell viability [8]: 109%
- cell viability [9]: 94.4%
- cell viability [10]: 73.9%
- cell viability [11]: 92.2%
- cell viability [12]: 78.2%
- cell viability [13]: 77.4%
- cell viability [14]: 87.3%
- cell viability [15]: 77.6%
- cell viability [16]: 90%
- cell viability [17]: 79.9%
- cell viability [18]: 95.3%
- cell viability [19]: 82.3%
- cell viability [20]: 85.6%
- cell viability [21]: 81.3%
- cell viability [22]: 80.5%
- cell viability [23]: 85.5%
- cell viability [24]: 86.8%
- cell viability [25]: 75.5%
- cell viability [26]: 82.5%
- cell viability [27]: 80.5%
- cell viability [28]: 81.6%
- cell viability [29]: 85.4%
- cell viability [30]: 82.3%
- cell viability [31]: 86%
- cell viability [32]: 75.5%
- cell viability [33]: 87.7%

SMILES: CCN(CCO)CCCC(C)Nc1ccnc2cc(Cl)ccc12 (stereo unspecified)
- cell viability [1]: 111%
- cell viability [2]: 105%
- cell viability [3]: 104%
- cell viability [4]: 123%
- cell viability [5]: 112%
- cell viability [6]: 139%
- cell viability [7]: 107%
- cell viability [8]: 101%
- cell viability [9]: 90%
- cell viability [10]: 53.2%
- cell viability [11]: 26%
- cell viability [12]: 107%
- cell viability [13]: 115%
- cell viability [14]: 110%
- cell viability [15]: 102%
- cell viability [16]: 101%
- cell viability [17]: 118%
- cell viability [18]: 115%
- cell viability [19]: 116%
- cell viability [20]: 110%
- cell viability [21]: 45.2%
- cell viability [22]: 21%

SMILES: NC(=O)c1ncn([C@@H]2O[C@H](CO)[C@@H](O)[C@H]2O)c1N
- cell viability [1]: 127%
- cell viability [2]: 111%
- cell viability [3]: 96%
- cell viability [4]: 136%
- cell viability [5]: 111%
- cell viability [6]: 121%
- cell viability [7]: 123%
- cell viability [8]: 123%
- cell viability [9]: 126%
- cell viability [10]: 115%
- cell viability [11]: 83%

SMILES: C[C@]12CCC(=O)C(O)=C1CC[C@@H]1[C@@H]2CC[C@]2(C)C(=O)CC[C@@H]12
- cell viability [12]: 123%
- cell viability [13]: 114%
- cell viability [14]: 105%
- cell viability [15]: 123%
- cell viability [16]: 129%
- cell viability [17]: 110%
- cell viability [18]: 128%
- cell viability [19]: 104%
- cell viability [20]: 107%
- cell viability [21]: 98.9%
- cell viability [22]: 95%

SMILES: C=C1C(=O)O[C@@H]2[C@H]3O[C@]3(C)CC/C=C(\C)CC[C@@H]12
- cell viability [1]: 110%
- cell viability [2]: 117%
- cell viability [3]: 110%
- cell viability [4]: 115%
- cell viability [5]: 117%
- cell viability [6]: 142%
- cell viability [7]: 114%
- cell viability [8]: 93.8%
- cell viability [9]: 15.9%
- cell viability [10]: 14.9%
- cell viability [11]: 3.29%
- cell viability [12]: 115%
- cell viability [13]: 121%
- cell viability [14]: 116%
- cell viability [15]: 113%
- cell viability [16]: 112%
- cell viability [17]: 108%
- cell viability [18]: 106%
- cell viability [19]: 102%
- cell viability [20]: 46.4%
- cell viability [21]: 5.46%
- cell viability [22]: 3.54%
- cell viability [23]: 98.1%
- cell viability [24]: 103%
- cell viability [25]: 104%
- cell viability [26]: 113%
- cell viability [27]: 114%
- cell viability [28]: 124%
- cell viability [29]: 112%
- cell viability [30]: 99.1%
- cell viability [31]: 62.3%
- cell viability [32]: 6.1%
- cell viability [33]: 3.17%

SMILES: CNC(=O)c1ccccc1Sc1ccc2c(/C=C/c3ccccn3)n[nH]c2c1
- cell viability [12]: 108%
- cell viability [13]: 116%
- cell viability [14]: 107%
- cell viability [15]: 115%
- cell viability [16]: 118%
- cell viability [17]: 105%
- cell viability [18]: 112%
- cell viability [19]: 91.5%
- cell viability [20]: 74.8%
- cell viability [21]: 68.8%
- cell viability [22]: 84.2%
- cell viability [23]: 103%
- cell viability [24]: 119%
- cell viability [25]: 123%
- cell viability [26]: 109%
- cell viability [27]: 104%
- cell viability [28]: 100%
- cell viability [29]: 107%
- cell viability [30]: 74.9%
- cell viability [31]: 74.8%
- cell viability [32]: 68.8%
- cell viability [33]: 67.9%

SMILES: COc1cc([C@@H]2c3cc4c(cc3[C@@H](O[C@@H]3O[C@@H]5CO[C@@H](C)O[C@H]5[C@H](O)[C@H]3O)[C@H]3COC(=O)[C@H]23)OCO4)cc(OC)c1O
- cell viability [1]: 93.9%
- cell viability [2]: 98.1%
- cell viability [3]: 83.4%
- cell viability [4]: 103%
- cell viability [5]: 87.5%
- cell viability [6]: 99.9%
- cell viability [7]: 96.3%
- cell viability [8]: 60.3%
- cell viability [9]: 19.3%
- cell viability [10]: 18.1%
- cell viability [11]: 21.6%
- cell viability [12]: 95.4%
- cell viability [13]: 84.9%
- cell viability [14]: 89.9%
- cell viability [15]: 85.9%
- cell viability [16]: 79.1%
- cell viability [17]: 81.1%
- cell viability [18]: 91.4%
- cell viability [19]: 63%
- cell viability [20]: 10.3%
- cell viability [21]: 11.7%
- cell viability [22]: 15.3%
- cell viability [23]: 84.7%
- cell viability [24]: 76.7%
- cell viability [25]: 80.7%
- cell viability [26]: 85.9%
- cell viability [27]: 81.7%
- cell viability [28]: 82.1%
- cell viability [29]: 87.9%
- cell viability [30]: 73.7%
- cell viability [31]: 15.6%
- cell viability [32]: 13.1%
- cell viability [33]: 18.9%
